Measurements taken from patent US20240238247A1, “METHOD OF TREATING EXPRESSIVE LANGUAGE DEFICIT IN AUTISTIC HUMANS” (AMS Therapeutics, priority 2022, published 2024).
“Also recorded” adds a separate entry of the source.

Experiments:
Assay type in all cases: in vivo
[1] = tested on: autistic human patients with expressive language deficit; assay: Expressive language (verbal output) graded on 7-point scale (0-6) in autistic patients treated with ethosuximide (ETS); details: for mean expressive language score after six months (Rx): FIG. 1; for Improvement Over Baseline, Expressive language: after six months of ETS therapy; for mean improvement in expressive language score: normal IQ patients (N=8) treated more than one month, 7-point scale of Table 1
Description: To assess the effectiveness of ethosuximide as a pharmacological treatment for expressive language deficit, 24 human patients were treated with ethosuximide (ETS) for at least one month, more preferably six months or longer, and their language, social, and behavioral skills were monitored throughout the course of treatment, typically every 1-3 months. Study participants (subjects) were divided into four treatment groups based on neurodevelopmental level (mental status): normal IQ (NIQ), borderline IQ (BIQ), mild mental retardation (mMR), and moderate mental retardation (moMR). Language skills (expressiveness, receptivity), social behavior (social interaction, eye contact, participation), and mood (affect, irritability, agitation) were evaluated at various points in time. Verbal output was graded using a 7-point scale (0-6), where 0=nonverbal, 1=echolalic (the patient can respond by echoing the speaker), 2=single words (the patient can respond in single words), 3=phrases (the patient can respond in a simple phrase), 4=sentences (the patient can respond in a full sentence), 5=spontaneous speech (the patient can speak spontaneously), and 6=mutual speech (the patient can have a true conversation with another person). [table] To evaluate drug efficacy and onset of action, each patient was monitored for changes in language, social behavior, and mood at various times after commencement of ETS therapy. Performance characteristics observed for each function (expressive language, mood, behavior) are summarized in Table 6, at t=1 month after commencement of treatment and t=3 months after commencement of treatment.

autistic human patients [2] = assay: Social behavior graded on 7-point scale (-3 to +3 vs baseline), based on Aberrant Behavior Checklist, in autistic patients treated with ETS; details: for Improvement Over Baseline, Social behavior: after six months of ETS therapy
Description: (§1) To assess the effectiveness of ethosuximide as a pharmacological treatment for expressive language deficit, 24 human patients were treated with ethosuximide (ETS) for at least one month, more preferably six months or longer, and their language, social, and behavioral skills were monitored throughout the course of treatment, typically every 1-3 months. Study participants (subjects) were divided into four treatment groups based on neurodevelopmental level (mental status): normal IQ (NIQ), borderline IQ (BIQ), mild mental retardation (mMR), and moderate mental retardation (moMR). Language skills (expressiveness, receptivity), social behavior (social interaction, eye contact, participation), and mood (affect, irritability, agitation) were evaluated at various points in time. Verbal output was graded using a 7-point scale (0-6), where 0=nonverbal, 1=echolalic (the patient can respond by echoing the speaker), 2=single words (the patient can respond in single words), 3=phrases (the patient can respond in a simple phrase), 4=sentences (the patient can respond in a full sentence), 5=spontaneous speech (the patient can speak spontaneously), and 6=mutual speech (the patient can have a true conversation with another person). Social behavior and mood symptoms, based on those described in the Aberrant Behavior Checklist, an established behavioral rating system used in evaluating patients with intellectual disabilities (see Aman, M. G., et al., “The Aberrant Behavior Checklist: A behavior rating scale for the assessment of treatment effects,” American Journal of Mental Deficiency, 89(5):485-491 (1985), incorporated by reference herein), were also graded on a 7-point scale (0±3). […] Social behavior and mood data are presented below in Table 8. To evaluate drug efficacy and onset of action, each patient was monitored for changes in language, social behavior, and mood at various times after commencement of ETS therapy. Performance characteristics observed for each function (expressive language, mood, behavior) are summarized in Table 6, at t=1 month after commencement of treatment and t=3 months after commencement of treatment.

autistic human patients [3] = assay: Mood graded on 7-point scale (-3 to +3 vs baseline), based on Aberrant Behavior Checklist, in autistic patients treated with ETS; details: for Improvement Over Baseline, Mood: after six months of ETS therapy
Description: as §1

autistic human patients [4] = assay: Tolerability / side effects of ETS treatment in the study patients
Description: Common side effects reported in the literature for patients receiving ethosuximide treatment for childhood absence epilepsy include abdominal distress, diarrhea, weight loss, hyperactivity, lethargy, leukopenia, and depression. Very few of these symptoms were reported or observed in the patients participating in the study herein described. Eleven patients stopped ETS treatment after 6 months or less. Five of these patients dropped out for non-medical reasons.

[5] = normal IQ patients, Aberrant Behavior Checklist methodology

CCC1(C)CC(=O)NC1=O (centres unmarked) [ETS, 2-ethyl-2-methylsuccinimide]
mean expressive language score after six months (Rx) ([1]; BIQ group, N=4, baseline 1.7, 0-6 scale): 2.75 | Improvement Over Baseline, Expressive language ([1]; BIQ): +1.0 | mean expressive language score after six months (Rx) ([1]; NIQ group, N=8, baseline 2.5, 0-6 scale): 4.4 | Improvement Over Baseline, Expressive language ([1]; NIQ): +2.0 | expressive language score ([1]; Patient A, after 3 months, baseline score 2 (single words)): 3 | expressive language, observation ([1]; Patient A, at 6-9 months): responding in full sentences | expressive language, observation ([1]; Patient A, at 9-12 months): speak spontaneously and even ask questions | Language development ([1]; Patient A, baseline SW, 1 mo.): Increased | Language development (expressive language class) ([1]; Patient A, baseline SW, 3 mo.): PH (Phrases) | Language development (expressive language class) ([1]; Patient A, baseline SW, 6 mo.): SN/SP | Language development (expressive language class) ([1]; Patient A, baseline SW, 9 mo.): SN/SP | Language development (expressive language class) ([1]; Patient A, baseline SW, 12 mo.): SN/SP/MU | expressive language, observation ([1]; Patient A, one month after onset of ETS treatment, baseline score 2): saying more words | Language development (4-word PH) ([1]; Patient B, baseline EC/2-word PH, 3 mo.): 4-word | Language development (expressive language class) ([1]; Patient B, baseline EC/2-word PH, 6 mo.): SN (Sentences) | Language development (expressive language class) ([1]; Patient B, baseline EC/2-word PH, 9 mo.): SN/SP | expressive language, observation ([1]; Patient B, by month 6): speak in sentences | expressive language, observation ([1]; Patient B, by month 9): converse spontaneously at times | expressive language, observation ([1]; Patient B, three months after onset of treatment, echolalic, some two-word phrases before): 3 and 4-word phrases | expressive language skills during treatment ([1]; Patient C, autistic child, 6 months of ETS, FIG. 3): steadily improved | expressive language, observation ([1]; Patients A and B (normal IQ), by 9 months from commencement of treatment, FIG. 2): some spontaneous speech | language skills after ETS treatment was stopped ([1]; Patients C (stopped at 6 months) and D (stopped at 9 months), evaluated several months later, FIG. 3): continued to improve | Expressive language: increased word count (talking more), score change ([1]; after 1 month of treatment): count (+1) | Expressive language, observed performance ([1]; after 3 months of treatment): 2-word phrases and Listening better and makes wants clearer | effect on expressive language skills ([1]; both epileptic (7 of 24) and non-epileptic patients): improved | mean expressive language score after six months (Rx) ([1]; mMR group, N=6, baseline 1.3, 0-6 scale): 2.5 | Improvement Over Baseline, Expressive language ([1]; mMR): +1.2 | mean expressive language score after six months (Rx) ([1]; moMR group, N=2, baseline 0.5, 0-6 scale): 1.0 | Improvement Over Baseline, Expressive language ([1]; moMR): +0.5 | mean improvement in expressive language score [1]: 1.9 points | mean improvement in expressive language score ([1]; listed as ethosuximide): about 2 points | improvements in expressive language and social skills ([1]; one month after commencing daily treatment): evident | retention of language gains after discontinuation ([1]; patients who discontinued treatment (after six months)): did not lose their language gains | Improvement Over Baseline, Social behavior (autistic human patients [2]; BIQ): +1.5 | Improvement Over Baseline, Social behavior (autistic human patients [2]; NIQ): +2.0 | Social behavior, observed performance (autistic human patients [2]; after 1 month of treatment): More engaged | Social behavior: increased eye contact, score change (autistic human patients [2]; after 1 month of treatment): contact (+1) | Social behavior, observed performance (autistic human patients [2]; after 3 months of treatment): Sits in groups | Improvement Over Baseline, Social behavior (autistic human patients [2]; mMR): +1.0 | Improvement Over Baseline, Social behavior (autistic human patients [2]; moMR): +1.0 | gain in social behavior (autistic human patients [2]; [5]): +2 points | Improvement Over Baseline, Mood (autistic human patients [3]; BIQ): +1.4 | Improvement Over Baseline, Mood (autistic human patients [3]; NIQ): +1.2 | Mood / focus observation (autistic human patients [3]; Patient B, 3 months after onset of treatment): more focused and calmer; also recorded: focused; also recorded: calmer | Mood: calmer, score change (autistic human patients [3]; after 1 month of treatment): Calmer (+1) | Mood: more focused, score change (autistic human patients [3]; after 1 month of treatment): More focused (+1) | Mood, observed performance (autistic human patients [3]; after 3 months of treatment): Fewer tantrums | Improvement Over Baseline, Mood (autistic human patients [3]; mMR): +1.0 | Improvement Over Baseline, Mood (autistic human patients [3]; moMR): 0.0 | Improvement Over Baseline, Mood (autistic human patients [3]; moMR, listed as ethosuximide): no change | gain in mood (autistic human patients [3]; [5]): +1.2 points | tolerability (autistic human patients [4]; all ages evaluated (3-24 years), 150-1000 mg b.i.d.): well tolerated | literature side effects (abdominal distress, diarrhea, weight loss, hyperactivity, lethargy, leukopenia, depression) reported or observed (autistic human patients [4]; patients participating in the study): Very few
